From ChEMBL document CHEMBL1201862, “PubChem BioAssay data set” (2004)
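Tested at 5 concentrations; 48 h exposure; 96-well plates; endpoints linearly interpolated, else capped at highest concentration. The concentration for 50% growth inhibition is given as GI50.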 Active and inactive are the calls of the source. Rule as the data show it: active = GI50 up to about 1.1 µM and inactive = higher.

Key:
Assay in all cases: DTP human tumour cell line panel, 48 h
[1] = test system: 786-0
[2] = test system: A498
[3] = test system: A549
[4] = test system: ACHN
[5] = test system: BT-549
[6] = test system: CAKI-1
[7] = test system: CCRF-CEM
[8] = test system: COLO 205
[9] = test system: DU-145
[10] = test system: EKVX
[11] = test system: HCC 2998
[12] = test system: HCT-116
[13] = test system: HCT-15
[14] = test system: HL-60
[15] = test system: HOP-62
[16] = test system: HOP-92
[17] = test system: HT-29
[18] = test system: Hs-578T
[19] = test system: IGROV-1
[20] = test system: K562
[21] = test system: KM12
[22] = test system: LOX IMVI
[23] = test system: M14
[24] = test system: MCF7
[25] = test system: MDA-MB-231
[26] = test system: MDA-MB-435
[27] = test system: MDA-N
[28] = test system: MOLT-4
[29] = test system: Malme-3M
[30] = test system: NCI-H226
[31] = test system: NCI-H23
[32] = test system: NCI-H460
[33] = test system: NCI-H522
[34] = test system: NCI/ADR-RES
[35] = test system: OVCAR-3
[36] = test system: OVCAR-4
[37] = test system: OVCAR-5
[38] = test system: OVCAR-8
[39] = test system: PC-3
[40] = test system: RPMI-8226
[41] = test system: RXF 393
[42] = test system: SF-268
[43] = test system: SF-295
[44] = test system: SF-539
[45] = test system: SK-MEL-28
[46] = test system: SK-MEL-2
[47] = test system: SK-MEL-5
[48] = test system: SK-OV-3
[49] = test system: SN12C
[50] = test system: SNB-19
[51] = test system: SNB-75
[52] = test system: SR
[53] = test system: SW-620
[54] = test system: T47D
[55] = test system: TK-10
[56] = test system: U-251
[57] = test system: UACC-257
[58] = test system: UACC-62
[59] = test system: UO-31

In the case of `CCC(=O)Oc1c2ccsc2c(OC(=O)CC)c2ccsc12`, the GI50 [1] is reported as 2.13 µM (inactive), the GI50 [2] is reported as 3.1 µM (inactive) and the GI50 [3] is reported as 2.05 µM (inactive). The GI50 [4] was 0.419 µM (active), the GI50 [5] was 0.174 µM (active) and the GI50 [6] was 2.42 µM (inactive). For the same compound, the GI50 [7] was 0.478 µM (active), the GI50 [8] was 5.51 µM (inactive) and the GI50 [9] was 0.262 µM (active). For the same compound, the GI50 [10] was 0.871 µM (active), the GI50 [11] was 1.93 µM (inactive) and the GI50 [12] was 0.332 µM (active). The GI50 [13] was 0.318 µM, the GI50 [14] was 0.201 µM (active) and the GI50 [15] was 0.849 µM (active). The GI50 [16] was 1.42 µM (inactive), the GI50 [17] was 2.41 µM (inactive) and the GI50 [18] was 0.372 µM (active). For the same compound, the GI50 [19] was 1.95 µM (inactive), the GI50 [20] was 0.461 µM (active) and the GI50 [21] was 1.8 µM (inactive). For the same compound, the GI50 [22] was 0.0661 µM (active), the GI50 [23] was 0.161 µM (active) and the GI50 [24] was 1.45 µM (inactive). The GI50 [25] was 0.232 µM (active), the GI50 [26] was 0.0604 µM (active) and the GI50 [27] was 0.0555 µM (active). For the same compound, the GI50 [28] was 0.75 µM (active), the GI50 [29] was 0.039 µM (active) and the GI50 [30] was 2.06 µM (inactive). For the same compound, the GI50 [31] was 0.182 µM (active), the GI50 [32] was 1.89 µM (inactive) and the GI50 [33] was 0.474 µM (active). For the same compound, the GI50 [34] was 0.279 µM (active), the GI50 [35] was 0.351 µM (active) and the GI50 [36] was 0.948 µM (active). The GI50 [37] was 1.88 µM (inactive), the GI50 [38] was 0.366 µM (active) and the GI50 [39] was 0.339 µM (active). The GI50 [40] was 0.452 µM (active), the GI50 [41] was 1 µM (active) and the GI50 [42] was 0.518 µM (active). For the same compound, the GI50 [43] was 0.254 µM (active), the GI50 [44] was 0.208 µM (active) and the GI50 [45] was 0.178 µM (active). The GI50 [46] was 0.344 µM (active), the GI50 [47] was 0.0753 µM (active) and the GI50 [48] was 6.62 µM (inactive). For the same compound, the GI50 [49] was 0.353 µM (active), the GI50 [50] was 0.54 µM (active) and the GI50 [51] was 0.184 µM (active). The GI50 [52] was 0.297 µM (active), the GI50 [53] was 0.471 µM (active) and the GI50 [54] was 1.56 µM (inactive). For the same compound, the GI50 [55] was 2.25 µM (inactive), the GI50 [56] was 0.389 µM (active) and the GI50 [57] was 0.171 µM (active). For the same compound, the GI50 [58] was 0.217 µM (active) and the GI50 [59] was 0.51 µM (active).
For `NNC(=O)c1c(Cl)c(Cl)c(Cl)c(Cl)c1-c1nc2ccccc2[nH]1`, the GI50 [1] was 18.5 µM (inactive), the GI50 [2] was 15 µM (inactive) and the GI50 [3] was 10 µM (inactive). For the same compound, the GI50 [4] was 17.1 µM (inactive), the GI50 [5] was 14.9 µM (inactive) and the GI50 [6] was 13.2 µM (inactive). For the same compound, the GI50 [7] was 12.5 µM (inactive), the GI50 [8] was 16.4 µM (inactive) and the GI50 [9] was 13.2 µM (inactive). The GI50 [10] was 12.4 µM (inactive), the GI50 [11] was 8.63 µM (inactive) and the GI50 [12] was 13.2 µM (inactive). For the same compound, the GI50 [13] was 5.07 µM, the GI50 [14] was 4.7 µM (inactive) and the GI50 [15] was 4.29 µM (inactive). The GI50 [16] was 18.5 µM (inactive), the GI50 [17] was 14.8 µM (inactive) and the GI50 [18] was 18.1 µM (inactive). The GI50 [19] was 1.18 µM (inactive), the GI50 [20] was 3.25 µM (inactive) and the GI50 [21] was 6.76 µM (inactive). The GI50 [22] was 12.7 µM (inactive), the GI50 [23] was 9.55 µM (inactive) and the GI50 [24] was 2.96 µM (inactive). The GI50 [25] was 21.3 µM (inactive), the GI50 [26] was 2.12 µM (inactive) and the GI50 [27] was 2.94 µM (inactive). For the same compound, the GI50 [28] was 4.66 µM (inactive), the GI50 [29] was 14.3 µM (inactive) and the GI50 [30] was 16.8 µM (inactive). The GI50 [31] was 15.6 µM (inactive), the GI50 [32] was 11.8 µM (inactive) and the GI50 [33] was 13.4 µM (inactive). The GI50 [34] was 6.34 µM (inactive), the GI50 [35] was 6.64 µM (inactive) and the GI50 [37] was 36.7 µM (inactive). The GI50 [38] was 29 µM (inactive), the GI50 [39] was 16.6 µM (inactive) and the GI50 [40] was 7.4 µM (inactive). The GI50 [41] was 3.49 µM (inactive), the GI50 [42] was 17.4 µM (inactive) and the GI50 [43] was 4.91 µM (inactive). The GI50 [44] was 20.4 µM (inactive), the GI50 [45] was 15.8 µM (inactive) and the GI50 [46] was 6.41 µM (inactive). For the same compound, the GI50 [47] was 11.2 µM (inactive), the GI50 [48] was 15.7 µM (inactive) and the GI50 [49] was 27 µM (inactive). For the same compound, the GI50 [50] was 19.6 µM (inactive), the GI50 [51] was 12.5 µM (inactive) and the GI50 [52] was 2.63 µM (inactive). For the same compound, the GI50 [53] was 10 µM (inactive), the GI50 [54] was 2.47 µM (inactive) and the GI50 [55] was 21.6 µM (inactive). The GI50 [57] was 12.6 µM (inactive), the GI50 [58] was 10.4 µM (inactive) and the GI50 [59] was 19.4 µM (inactive).
`O=c1c2ccccc2oc2c1ccc1ncccc12` was tested, and the GI50 [1] was 12.3 µM (inactive), the GI50 [2] was 5.01 µM (inactive) and the GI50 [3] was 5.4 µM (inactive). The GI50 [4] was 5.55 µM (inactive), the GI50 [5] was 17.8 µM (inactive) and the GI50 [6] was 3.34 µM (inactive). The GI50 [7] was 11.1 µM (inactive), the GI50 [8] was 17.3 µM (inactive) and the GI50 [9] was 4.69 µM (inactive). The GI50 [10] was 8.2 µM (inactive), the GI50 [11] was 30.4 µM (inactive) and the GI50 [12] was 6.34 µM (inactive). For the same compound, the GI50 [13] was 11.9 µM, the GI50 [14] was 9.35 µM (inactive) and the GI50 [15] was 15 µM (inactive). The GI50 [16] was 5.53 µM (inactive), the GI50 [17] was 14.5 µM (inactive) and the GI50 [18] was 11.9 µM (inactive). For the same compound, the GI50 [19] was 11 µM (inactive), the GI50 [20] was 24.7 µM (inactive) and the GI50 [21] was 24.2 µM (inactive). For the same compound, the GI50 [22] was 5.24 µM (inactive), the GI50 [24] was 8.55 µM (inactive) and the GI50 [25] was 26.8 µM (inactive). For the same compound, the GI50 [26] was 25.7 µM (inactive), the GI50 [27] was 20 µM (inactive) and the GI50 [28] was 3.08 µM (inactive). For the same compound, the GI50 [29] was 14.8 µM (inactive), the GI50 [30] was 13.3 µM (inactive) and the GI50 [31] was 16.2 µM (inactive). For the same compound, the GI50 [32] was 3.56 µM (inactive), the GI50 [33] was 12.7 µM (inactive) and the GI50 [34] was 10.4 µM (inactive). The GI50 [35] was 18 µM (inactive), the GI50 [36] was 14.4 µM (inactive) and the GI50 [37] was 1.4 µM (inactive). For the same compound, the GI50 [38] was 11.8 µM (inactive), the GI50 [39] was 22.4 µM (inactive) and the GI50 [40] was 15.4 µM (inactive). The GI50 [41] was 13.4 µM (inactive), the GI50 [42] was 17.2 µM (inactive) and the GI50 [43] was 12.9 µM (inactive). The GI50 [44] was 19.6 µM (inactive), the GI50 [45] was 23 µM (inactive) and the GI50 [46] was 27.2 µM (inactive). The GI50 [47] was 11.5 µM (inactive), the GI50 [48] was 6.38 µM (inactive) and the GI50 [49] was 10.6 µM (inactive). The GI50 [51] was 21.3 µM (inactive), the GI50 [52] was 8.87 µM (inactive) and the GI50 [53] was 10.7 µM (inactive). The GI50 [54] was 12.1 µM (inactive), the GI50 [55] was 6.73 µM (inactive) and the GI50 [57] was 20.7 µM (inactive). The GI50 [58] was 11 µM (inactive) and the GI50 [59] was 5.93 µM (inactive).
